The text below walks through data of patent publication US20220265845A1, “AMINOTHIOLESTER COMPOUNDS AND USES THEREOF” (ADVANCED BIODESIGN, priority 2019, published 2022).

For one data set, the system named is HL-60. Description: Cell viability assay (Resazurin), cytotoxicity in HL60 cells. The following applies: Homo sapiens, HL-60, read-out: IC50 at 48 h, 48 hours of incubation. In kind it is cell-based. As to the method:
Cell lines. Leukemic cell line, HL-60 (derived from a person with AML-M2), was used for determination of drug efficacy. Cells were obtained from the European Collection of Cell Cultures (ECACC). All cells were cultivated in appropriate media according to supplier recommendations.
Cell Viability assay, 96-well format. Cells were seeded into 96-well cell culture plates at concentrations required to ensure approximately 80% confluence in control (untreated cells) at the end of experiment (0.5×10^4-5×10^4 cell/well).
The sensitivity towards compounds according to the invention was determined using different concentrations of each compound ranging from 0.5 to 100 μM (0.5, 1, 2, 5, 10, 15, 20, 25, 30, 40, 50, 100 μM). Following 48 hours of incubation at 37° C. in a humidified atmosphere containing 5% CO2, the growth-inhibitory effect of compounds was analyzed using Resazurin, according to manufactures instructions.
To ensure good data quality and to minimize impact of pipetting errors, each compounds concentration was assessed based on mean fluorescence intensity from 8 separate wells. Compounds response were quantified by the half maximal inhibitory concentration (IC50) for each particular cell line, and determined by non-linear regression analysis of log-dose/response curves.
Statistical Analysis. Values were expressed as mean±SD or frequencies and proportions. Cell viability curves were determined using four parameter regression line. Differences between groups were determined by unpaired t test, Chi-square, Fisher's exact test or ANOVA, where appropriate. P<0.05 was considered statistically significant. Analysis was performed using GraphPad prism version 5.0 (GraphPad software, San Diego Calif. USA).

In another data set the test system is Raji cells. Description: Cell cytotoxicity by Rituximab-compound 9 (Alamar Blue). As to conditions: treatment of 50 μg/ml. A general note: The colour change of resazurin is a common sign of viable cells or microbes.

Procedure for Raji cells: 50 000 viable Raji cells were plated in triplicate. […] The cells were incubated for 48 h at which time 20 μl of Alamar Blue (Thermo Fisher Scientific) was added to each well. The plates were incubated for an additional four hours and the fluorescence intensity read on a plate reader using excitation wavelength of 540 nm and an emission wavelength of 620 nm.

For `CCOCCN(C)C(C)(C)C#CC(=O)SC` [Example 1, S-methyl 4-[2-ethoxyethyl(methyl)amino]-4-methyl-pent-2-ynethioate], the IC50 (usually the concentration that gives 50% inhibition) in the data set with HL-60 was 4.98 µM.

`C=CCOCCN(C)C(C)(C)C#CC(=O)SC` [Example 2, S-methyl 4-[2-allyloxyethyl(methyl)amino]-4-methyl-pent-2-ynethioate]: in the data set on HL-60, the IC50 was 6.5 µM.

Take `CSC(=O)C#CC(C)(C)N(C)CCOCc1cccc(C)c1` [Example 4, S-methyl 4-methyl-4-[methyl-[2-(m-tolylmethoxy)ethyl]amino]pent-2-ynethioate]: in the data set with HL-60, the IC50 amounted to 5.62 µM.

Turning to `COc1ccc(COCCN(C)C(C)(C)C#CC(=O)SC)cc1` [Example 6, S-methyl 4-[2-[(4-methoxyphenyl)methoxy]ethyl-methyl-amino]-4-methyl-pent-2-ynethioate], the IC50 with HL-60 was 6.48 µM.

Regarding `COc1ccc(COCCN(C)C(C)(C)C#CC(=O)SC)cc1OC` [Example 7, S-methyl 4-[2-[(3,4-dimethoxyphenyl)methoxy]ethyl-methyl-amino]-4-methyl-pent-2-ynethioate], the IC50 with HL-60 came out at 6.08 µM.

`CSC(=O)C#CC(C)(C)N(C)CCOCc1cccc(Cl)c1` [Example 8, S-methyl 4-[2-[(3-chlorophenyl)methoxy]ethyl-methyl-amino]-4-methyl-pent-2-ynethioate]: the IC50 with HL-60 came out at 7.07 µM.

For `CSC(=O)C#CC(C)(C)N(C)CCOCc1cccc(F)c1` [Example 9, S-methyl 4-[2-[(3-fluorophenyl)methoxy]ethyl-methyl-amino]-4-methyl-pent-2-ynethioate], the IC50 in the data set on HL-60 was determined as 6.65 µM.

With `CSC(=O)C#CC(C)(C)N(C)CCOCc1ccccn1` [Example 10, S-methyl 4-methyl-4-[methyl-[2-(2-pyridylmethoxy)ethyl]amino]pent-2-ynethioate], in the data set with HL-60, the IC50 is 5.62 µM.

In the case of `CSC(=O)C#CC(C)(C)N(C)CCOCc1cccnc1` [Example 11, S-methyl 4-methyl-4-[methyl-[2-(3-pyridylmethoxy)ethyl]amino]pent-2-ynethioate], the IC50 in the data set on HL-60 amounted to 6.56 µM.

As to `CSC(=O)C#CC(C)(C)N(C)CCOCc1ccncc1` [Example 12, S-methyl 4-methyl-4-[methyl-[2-(4-pyridylmethoxy)ethyl]amino]pent-2-ynethioate], the IC50 with HL-60 is 5.68 µM.

Consider `COC(=O)C#CC(C)(C)N(C)C` [Example 13, methyl 4-(dimethylamino)-4-methyl-pent-2-ynoate], for which the IC50 with HL-60 came out at 42.7 µM.

For the compound `CCOC(=O)C#CC(C)(C)N(C)C` [Example 14, ethyl 4-(dimethylamino)-4-methyl-pent-2-ynoate], the IC50 in the data set on HL-60 was found to be 40 µM.

Regarding `CN(C)C(C)(C)C#CC(=O)SCC(=O)OC(C)(C)C` [Example 15, tert-butyl 2-((4-(dimethylamino)-4-methylpent-2-ynoyl)thio)acetate], the IC50 in the data set with HL-60 was found to be 25 µM.

Consider `CN(C)C(C)(C)C#CC(=O)SCC(=O)O` [Example 16, 2-((4-(dimethylamino)-4-methylpent-2-ynoyl)thio)acetic acid], for which the IC50 with HL-60 came to 22.5 µM.

Regarding `CSC(=O)C#CC(C)(C)N(C)CCCCOCc1ccccc1` [Example 17, S-methyl 4-((4-(benzyloxy)butyl)(methyl)amino)-4-methylpent-2-ynethioate], the IC50 with HL-60 is 11.3 µM.

Consider `CSC(=O)C#CC(C)(C)N(C)CCO` [Example 18, S-methyl 4-((2-hydroxyethyl)(methyl)amino)-4-methylpent-2-ynethioate], for which the IC50 in the data set with HL-60 stood at 6.75 µM.

For the compound `CSC(=O)C#CC(C)(C)N(C)CCOCc1ccc2ccccc2c1` [Example 19, S-methyl 4-methyl-4-[methyl-[2-(2-naphthylmethoxy)ethyl]amino]pent-2-ynethioate], in the data set with HL-60, the IC50 is 11.3 µM.

On to `CSC(=O)C#CC(C)(C)N(C)CCOCC1=C(C)CCCC1(C)C` [Example 20, S-methyl 4-methyl-4-[methyl-[2-[(2,6,6-trimethylcyclohexen-1-yl)methoxy]ethyl]amino]pent-2-ynethioate], for which the IC50 in the data set with HL-60 was 13.6 µM.

Take `CSC(=O)C#CC(C)(C)N(C)CCOC(C)=O` [Example 21, 2-[(1,1-dimethyl-4-methylsulfanyl-4-oxo-but-2-ynyl)-methylamino]ethyl acetate]: the IC50 in the data set on HL-60 is 12.7 µM.

With `COc1ccc(C(=O)OCCN(C)C(C)(C)C#CC(=O)SC)cc1OC` [Example 22, 2-[(1,1-dimethyl-4-methylsulfanyl-4-oxo-but-2-ynyl)-methylamino]ethyl-3,4-dimethoxybenzoate], the IC50 with HL-60 is 15.3 µM.

As to `CSC(=O)C#CC(C)(C)N(C)CCOC(=O)N(C)CCN(C)C` [Example 23, S-methyl 2,5,10,11,11-pentamethyl-6-oxo-7-oxa-2,5,10-triazatetradec-12-yne-14-thioate], the IC50 in the data set on HL-60 amounted to 10.6 µM.

As for `COC[C@@H]1CCCN1C(C)(C)C#CC(=O)SC` [Example 24, (S)—S-methyl 4-(2-(methoxymethyl)pyrrolidin-1-yl)-4-methylpent-2-ynethioate], in the data set on HL-60, the IC50 stood at 20.5 µM.

`CO[C@@H]1CCN(C(C)(C)C#CC(=O)SC)C1` [Example 25, S-methyl 4-[(3R)-3-methoxypyrrolidin-1-yl]-4-methyl-pent-2-ynethioate]: in the data set with HL-60, the IC50 is 16.5 µM.

With `CSC(=O)C#CC(C)(C)N(C)[C@@H]1CCC[C@H]1OCc1ccccc1` [Example 26, S-methyl 4-(((1R,2R)-2-(benzyloxy)cyclopentyl)(methyl)amino)-4-methylpent-2-ynethioate], the IC50 with HL-60 worked out at 17.5 µM.

On to `CSC(=O)C#CC(C)(C)N1CCC[C@H]1COCc1ccccc1` [Example 27, (S)—S-methyl 4-(2-((benzyloxy)methyl)pyrrolidin-1-yl)-4-methylpent-2-ynethioate], for which, in the data set with HL-60, the IC50 was found to be 10.4 µM.

Turning to `CSC(=O)C#CC(C)(C)N1CC[C@@H](OCc2ccccc2)C1` [Example 28, (R)—S-methyl 4-(3-(benzyloxy)pyrrolidin-1-yl)-4-methylpent-2-ynethioate], the IC50 with HL-60 turned out to be 11.8 µM.

Regarding “Rituximab: Antibody rituximab (Roche), target CD20 [reference compound]”, the “Mean viability of Raji cells in percentage comparing to the non-treated cells” value in the data set with Raji cells is given as 85.50%±2.268%.
